The source of these data is US6376506B1, “Sulfamide-metalloprotease inhibitors” (Syntex (U.S.A.) LLC, priority 1997, dated 2002).

Assay [1] has as its target T1, human collagenase-1 catalytic domain (Homo sapiens, UniProt P03956).
T1 construct: the collagenase-1 catalytic domain was released by treatment with 1 mM of aminophenylmercuric acetate (APMA); ubiquitin (cleaved yes); made in house; host or cells: E. coli
T1 sequence (P03956 100-269 limits assumed): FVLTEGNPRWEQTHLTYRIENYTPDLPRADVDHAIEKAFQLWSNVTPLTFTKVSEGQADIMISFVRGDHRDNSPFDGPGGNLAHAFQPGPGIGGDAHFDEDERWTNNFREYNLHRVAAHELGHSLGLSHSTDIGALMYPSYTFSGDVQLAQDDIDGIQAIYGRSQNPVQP
As to the kind of experiment: MMP inhibition in vitro, human collagenase-1. It is filed as biochemical. The conditions noted are these: MCA-Pro-Leu-Gly-Leu-DPA-Ala-Arg-NH2 hydrolysis at 37° C.; read-out: Collagenase-I IC50. As to the method:
The catalytic domain of human collagenase-1 was expressed as a fusion protein with ubiquitin in E. Coli as described in Gehring, E. R. et al., J. Biol. Chem., 270, 22507, (1995). After purification of the fusion protein, the collagenase-1 catalytic domain was released by treatment with 1 mM of aminophenylmercuric acetate (APMA) for 1 hour at 37° C. and then purified by zinc chelate chromatography.
(§1) The matrix metalloprotease inhibitory activity of compounds of this invention in vitro was determined based on the hydrolysis of MCA-Pro-Leu-Gly-Leu-DPA-Ala-Arg-NH2 (Bachem, Inc.) at 37° C. as described in Knight, C. G., et al., FEBS Lett., 296, 263-266 (1992).
(§2) The matrix metalloprotease enzyme was diluted with assay buffer (50 mM Tricine pH 7.5, 200 mM NaCl, 10 mM CaCl2, and 0.005% Brij-35) containing 10 μmole of above substrate dissolved in DMSO. Compounds of the invention dissolved in DMSO or only DMSO (control samples) were added such that the final DMSO concentration in all assays was 2.5%. The fluorescence changes were monitored with a Perkin-Elmer LS-50B flourimeter using an excitation wavelength of 328 nm and an emission wavelength of 393 nm.

The test system of the next assay is Human Monomac 6 cells. As to the kind of experiment: Inhibition of TNF release in vitro assay (LPS/PMA stimulated). It is filed as cell-based. The note with it: Conc. 2 μM, LPS/PMA stimulated Monomac 6 cells, 2 h. As to the method: The activity of compounds of this invention in inhibiting the TNF release was determined, using the a minor modification of the method described in Pradines-Figueres, A. and Raetz, C. R. H., J. Biol. Chem., 267 (32), 23261, (1992).
Human Monomac 6 cells (Ziegler-Heitbrock, H. W. L., et al., Int. J. Cancer, 41, 456, (1988)) were cultured at 37° C. in RPMI 1640 medium containing 10% fetal calf serum to a density of 1×10^5 cells/ml. 0.23 ml of these cells were placed in each well of a tissue culture plate and the cells were incubated for 15 min. The test compounds were dissolved in above mentioned medium and added and the incubation was continued for an additional 15 min. 10 μl of an lipopolysaccharide/phorbol-12-myristate-13-acetate (LPS/PMA) mixture was added such that the final concentration of lipopolysaccharide was 10 ng/ml and the final concentration of phorbol-12-myristate-13-acetate was 30 ng/ml. The cells were incubated for 2 h after which the plate was centrifuged and the medium was removed and analyzed for TNF content. The analysis was performed using a TNF Quantikine® Immunoassay (R & D Systems, Minneapolis, Minn. 55413) by following the manufacturer's protocol.

The target in assay [2] is T2, human collagenase-3 catalytic domain (Homo sapiens, UniProt P45452).
T2 construct: After purification, the catalytic domain was released by treatment with 1 mM APMA for 1 hour at 37° C; ubiquitin (N, cleaved yes); made in house; host or cells: E. coli
As to the kind of experiment: MMP inhibition in vitro, human collagenase-3. The class given is biochemical. The note with it: MCA-Pro-Leu-Gly-Leu-DPA-Ala-Arg-NH2 hydrolysis at 37° C.; read-out: Collagenase-III IC50. As to the method:
The propeptide and catalytic domain portion of human collagcenase-3 was expressed in E. Coli as an N-terminal fusion protein with ubiquitin. After purification, the catalytic domain was released by treatment with 1 mM APMA for 1 hour at 37° C., and then purified by zinc chelate chromatography.
as §1, §2

The next assay deals with TNF-α. As to the kind of experiment: Inhibition of LPS induced TNF-α production in mice in vivo assay. The conditions noted are these: female Balb/c mice, compound subcutaneously 1 h before LPS i.p., serum TNF-α 1.5 h after LPS. As to the method: The activity of compounds of this invention in inhibiting the TNF-α release was determined using a minor modification of the methods described in Zanetti, G.; Heumann, D., et. al., “Cytokine production after intravenous or peritoneal Gram-negative bacterial challenge in mice” J. Immunol., 148, 1890, (1992) and Sekut, L., Menius, J. A., et. al., “Evaluation if the significance of related levels of systemic and localized tumor necrosis factor in different animal models of inflammation” J. Lab. Clin. Med., 124, 813, (1994).
Female Balb/c mice were anesthetized and injected subcutaneously with the test compounds dissolved in CMC vehicle or hydroxypropylmethyl cellulose based vehicle. Control animals received only the vehicle. After 1 h, LPS (50 μg/mouse, Sigma #13129, Sigma Chemical Co., St. Louis, Mo.) was injected intraperitoneally. After 1.5 h, blood was collected from the retro-orbital plexus region of the animals in a microtainer serum separator tube (Becton Dickinson, Cat. No. #5960, Becton Dickinson & Co., Franklin Lakes, N.J.). The sera was separated and the amount of TNF-α was determined using the EM-TNFA® kit (Endogen, Woburn, Mass.) by following the manufacturer's protocol.

Some results are limits rather than exact numbers.

A word on the IC50: it is the midpoint of a concentration-inhibition curve. For orientation: % inhibition means the share of the control response that was lost under treatment. For “N-hydroxy-1-[4-(4,5,6,7-tetrafluoroindol-3-yl)piperazine-1-sulfonyl]piperidine-2-(RS)-carboxamide [compound 299]”, the results for the concentration for half-maximal inhibition (IC50) in assay [1] and in assay [2] were above 50000 nM and 410 nM, respectively. For the same substance, the “% inhibition” value in the assay with Human Monomac 6 cells was determined as 90%; in the assay with TNF-α it was 52%.
